Experimental findings from patent US10167293B2, “[8-(phenylsulfonyl)-3,8-diazabicyclo[3.2.1]oct-3-yl](1H-1,2,3-triazol-4-yl)methanones” (BAYER PHARMA AKTIENGESELLSCHAFT, priority 2016, dated 2019) are described below.

This test has as its target recombinant human AKR1C3 (Homo sapiens (Human), UniProt P42330). As to the kind of experiment: AKR1C3-inhibitory activity assay (Coumberone to Coumberol fluorescence). In kind it is biochemical. The note with it: recombinant human AKR1C3, 15 min pre-incubation, 10 μM NADPH, 0.3 μM Coumberone. The protocol: The AKR1C3-inhibitory activity of the substances of the present invention was measured in the AKR1C3 assay described in the paragraphs below.
Essentially, the enzyme activity is measured by quantification of the generation of Coumberol from Coumberone (Halim et al. J. AM. CHEM. SOC. 2008, 130:14123-14128 and Yee et al. Proc. Natl. Acad. Sci. USA 2006, 103:13304-13309). In this test, the increase of the highly fluorescent Coumberol by NADPH—(nicotinamide adenine dinucleotide phosphate)-dependent reduction of the non-fluorescent Coumberone by AKR1C3 was determined.
The enzyme used was recombinant human AKR1C3 (Aldo-keto reductase family 1 member C3; GenBank Accession No. NM_003739). This was expressed in E. coli as GST (glutathione S transferase) fusion protein and purified by glutathione Sepharose affinity chromatography. The GST was removed by digestion with thrombin and subsequent size exclusion chromatography (Dufort, I., Rheault, P., Huang, X F., Soucy, P., and Luu-The, V., Endocrinology 140, 568-574 (1999)).
For the assay, 50 nl of a 100-fold concentrated solution of the test substance in DMSO were pipetted into a black low-volume 384-well microtiter plate (Greiner Bio-One, Frickenhausen, Germany), 2.5 μl of a solution of AKR1C3 in assay buffer [50 mM potassium phosphate buffer pH 7, 1 mM DTT, 0.0022% (w/v) Pluronic F-127, 0.01% BSA (w/v) and protease inhibitor cocktail (Complete, EDTA-free Protease Inhibitor Cocktail from Roche)] were added and the mixture was incubated for 15 min to allow pre-binding of the substances to the enzyme prior to the enzyme reaction. The enzyme reaction was then started by addition of 2.5 μl of a solution of NADPH (20 μM→final concentration in 5 μl of assay volume is 10 μM) and Coumberone (0.6 μM→final concentration in 5 μl of assay volume is 0.3 μM) in assay buffer, and the resulting mixture was incubated at 22° C. for the reaction time of typically 90 min. The concentration of the AKR1C3 and the reaction time was adapted to the respective activity of the enzyme preparation and adjusted such that the assay was carried out in the linear range. Typical AKR1C3 concentrations were in the region of 1 nM. The reaction was stopped by addition of 2.5 μl of a stop solution consisting of 3 μM EM-1404 as inhibitor (U.S. Pat. No. 6,541,463) in 50 mM HEPES pH7.5 (3 μM EM-1404→final concentration in 7.5 μl of assay volume is 1 μM). The fluorescence of the Coumberole was then measured at 520 nm (excitation at 380 nm) using a suitable measuring instrument (Pherastar from BMG Labtechnologies). The intensity of the fluorescence was used as a measure of the amount of Coumberole formed and thus of the enzyme activity of AKR1C3. The data were normalized (enzyme reaction without inhibitor=0% inhibition; all other assay components, but no enzyme=100% inhibition).

The structures appear in SMILES notation.

Sequence of recombinant human AKR1C3 (P42330 whole entry): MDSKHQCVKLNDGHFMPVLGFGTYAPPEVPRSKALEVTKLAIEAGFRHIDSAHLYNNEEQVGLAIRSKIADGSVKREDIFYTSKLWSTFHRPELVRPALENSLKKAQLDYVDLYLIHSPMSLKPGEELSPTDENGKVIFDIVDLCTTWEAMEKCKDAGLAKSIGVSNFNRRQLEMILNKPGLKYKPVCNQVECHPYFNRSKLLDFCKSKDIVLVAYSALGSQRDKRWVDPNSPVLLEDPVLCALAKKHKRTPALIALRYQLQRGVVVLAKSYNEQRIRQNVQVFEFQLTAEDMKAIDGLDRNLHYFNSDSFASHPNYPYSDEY

The IC50 is the concentration at which inhibition is half-maximal. Regarding `O=C(c1cnn[nH]1)N1CC2CCC(C1)N2S(=O)(=O)c1cccc(Br)c1` [Example 31, {8-[(3-bromophenyl)sulfonyl]-3,8-diazabicyclo[3.2.1]oct-3-yl}(1H-1,2,3-triazol-5-yl)methanone], the IC50 came to 0.5 nM.
The same measure for `O=C(c1cnn[nH]1)N1CC2CCC(C1)N2S(=O)(=O)c1cccc(OC(F)(F)F)c1` [Example 33, 1H-1,2,3-triazol-5-yl[8-{[3-(trifluoromethoxy)phenyl]sulfonyl}-3,8-diazabicyclo[3.2.1]oct-3-yl]methanone]: 1.8 nM; for `O=C(c1cnn[nH]1)N1CC2CCC(C1)N2S(=O)(=O)c1cc(Cl)ccc1C(F)(F)F` [Example 34, [8-{[5-chloro-2-(trifluoromethyl)phenyl]sulfonyl}-3,8-diazabicyclo[3.2.1]oct-3-yl](1H-1,2,3-triazol-5-yl)methanone]: 1.9 nM.
`N#Cc1ccccc1S(=O)(=O)N1C2CCC1CN(C(=O)c1cnn[nH]1)C2` [Example 35, 2-{[3-(1H-1,2,3-triazol-5-ylcarbonyl)-3,8-diazabicyclo[3.2.1]oct-8-yl]sulfonyl}benzonitrile]: the IC50 is 6 nM.
For `O=C(c1cnn[nH]1)N1CC2CCC(C1)N2S(=O)(=O)c1ccc(C(F)(F)F)cc1` [Example 36, 1H-1,2,3-triazol-5-yl[8-{[4-(trifluoromethyl)phenyl]sulfonyl}-3,8-diazabicyclo[3.2.1]oct-3-yl]methanone], the IC50 was found to be 3.3 nM.
Regarding `O=C(c1cnn[nH]1)N1CC2CCC(C1)N2S(=O)(=O)c1ccc(O)cc1` [Example 37, {8-[(4-hydroxyphenyl)sulfonyl]-3,8-diazabicyclo[3.2.1]oct-3-yl}(1H-1,2,3-triazol-5-yl)methanone], the IC50 was found to be 2.8 nM.
With `O=C(c1cnn[nH]1)N1CC2CCC(C1)N2S(=O)(=O)c1ccc(Br)cc1` [Example 38, {8-[(4-bromophenyl)sulfonyl]-3,8-diazabicyclo[3.2.1]oct-3-yl}(1H-1,2,3-triazol-5-yl)methanone], the IC50 came to 1.5 nM.
As for `O=C(c1cnn[nH]1)N1CC2CCC(C1)N2S(=O)(=O)c1cccc2ccccc12` [Example 39, [8-(naphthalen-1-ylsulfonyl)-3,8-diazabicyclo[3.2.1]oct-3-yl](1H-1,2,3-triazol-5-yl)methanone], the IC50 worked out at 1.3 nM.
For `O=C(c1cnn[nH]1)N1CC2CCC(C1)N2S(=O)(=O)c1cccc2cccnc12` [Example 40, [8-(quinolin-8-ylsulfonyl)-3,8-diazabicyclo[3.2.1]oct-3-yl](1H-1,2,3-triazol-5-yl)methanone], the IC50 was found to be 3.4 nM.
Take `O=C(c1cnn[nH]1)N1CC2CCC(C1)N2S(=O)(=O)c1ccc(OC(F)(F)F)cc1` [Example 41, 1H-1,2,3-triazol-5-yl[8-{[4-(trifluoromethoxy)phenyl]sulfonyl}-3,8-diazabicyclo[3.2.1]oct-3-yl]methanone]: the IC50 was 6.5 nM.
The same measure for `O=C(c1cnn[nH]1)N1CC2CCC(C1)N2S(=O)(=O)c1ccccc1OC(F)(F)F` [Example 42, 1H-1,2,3-triazol-5-yl[8-{[2-(trifluoromethoxy)phenyl]sulfonyl}-3,8-diazabicyclo[3.2.1]oct-3-yl]methanone]: 1.1 nM; for `O=C(c1cnn[nH]1)N1CC2CCC(C1)N2S(=O)(=O)c1ccc([N+](=O)[O-])cc1` [Example 43, {8-[(4-nitrophenyl)sulfonyl]-3,8-diazabicyclo[3.2.1]oct-3-yl}(1H-1,2,3-triazol-5-yl)methanone]: 9.1 nM; for `O=C(c1cnn[nH]1)N1CC2CCC(C1)N2S(=O)(=O)c1cccc([N+](=O)[O-])c1` [Example 44, {8-[(3-nitrophenyl)sulfonyl]-3,8-diazabicyclo[3.2.1]oct-3-yl}(1H-1,2,3-triazol-5-yl)methanone]: 1.9 nM.
On to `Cc1cc(C)c(S(=O)(=O)N2C3CCC2CN(C(=O)c2cnn[nH]2)C3)c(C)c1` [Example 45, 1H-1,2,3-triazol-5-yl{8-[(2,4,6-trimethylphenyl)sulfonyl]-3,8-diazabicyclo[3.2.1]oct-3-yl}methanone], for which the IC50 came out at 1.4 nM.
In the case of `O=C(c1cnn[nH]1)N1CC2CCC(C1)N2S(=O)(=O)c1ccccc1[N+](=O)[O-]` [Example 46, {8-[(2-nitrophenyl)sulfonyl]-3,8-diazabicyclo[3.2.1]oct-3-yl}(1H-1,2,3-triazol-5-yl)methanone], the IC50 worked out at 0.9 nM.
For the molecule `COc1ccc(OC)c(S(=O)(=O)N2C3CCC2CN(C(=O)c2cnn[nH]2)C3)c1` [Example 47, {8-[(2,5-dimethoxyphenyl)sulfonyl]-3,8-diazabicyclo[3.2.1]oct-3-yl}(1H-1,2,3-triazol-5-yl)methanone], the IC50 came to 29.8 nM.
In the case of `O=C(c1cnn[nH]1)N1CC2CCC(C1)N2S(=O)(=O)c1ccc(Cl)c(Cl)c1` [Example 48, {8-[(3,4-dichlorophenyl)sulfonyl]-3,8-diazabicyclo[3.2.1]oct-3-yl}(1H-1,2,3-triazol-5-yl)methanone], the IC50 is 1.1 nM.
Consider `CCc1ccc(S(=O)(=O)N2C3CCC2CN(C(=O)c2cnn[nH]2)C3)cc1` [Example 49, {8-[(4-ethylphenyl)sulfonyl]-3,8-diazabicyclo[3.2.1]oct-3-yl}(1H-1,2,3-triazol-5-yl)methanone], for which the IC50 worked out at 1.2 nM.
The result for `O=C(c1cnn[nH]1)N1CC2CCC(C1)N2S(=O)(=O)c1ccc(F)cc1Cl` [Example 50, {8-[(2-chloro-4-fluorophenyl)sulfonyl]-3,8-diazabicyclo[3.2.1]oct-3-yl}(1H-1,2,3-triazol-5-yl)methanone] reads 0.9 nM; that for `Cc1cccc(Cl)c1S(=O)(=O)N1C2CCC1CN(C(=O)c1cnn[nH]1)C2` [Example 51, {8-[(2-chloro-6-methylphenyl)sulfonyl]-3,8-diazabicyclo[3.2.1]oct-3-yl}(1H-1,2,3-triazol-5-yl)methanone], 0.8 nM.
On to `O=C(c1cnn[nH]1)N1CC2CC[C@@H](C1)N2S(=O)(=O)c1cccc(Cl)c1Cl` [Example 53, {(1S)-8-[(2,3-dichlorophenyl)sulfonyl]-3,8-diazabicyclo[3.2.1]oct-3-yl}(1H-1,2,3-triazol-5-yl)methanone], for which the IC50 turned out to be 0.8 nM.
For the molecule `O=C(c1cnn[nH]1)N1CC2CCC(C1)N2S(=O)(=O)c1cccc2nsnc12` [Example 54, [8-(2,1,3-benzothiadiazol-4-ylsulfonyl)-3,8-diazabicyclo[3.2.1]oct-3-yl](1H-1,2,3-triazol-5-yl)methanone], the IC50 worked out at 1.2 nM.
The result for `O=C(c1cnn[nH]1)N1CC2CCC(C1)N2S(=O)(=O)c1cccc2nonc12` [Example 55, [8-(2,1,3-benzoxadiazol-4-ylsulfonyl)-3,8-diazabicyclo[3.2.1]oct-3-yl](1H-1,2,3-triazol-5-yl)methanone] reads 2.7 nM; that for `O=C(c1cnn[nH]1)N1CC2CCC(C1)N2S(=O)(=O)c1c(Cl)cc(Cl)cc1Cl` [Example 56, 1H-1,2,3-triazol-5-yl{8-[(2,4,6-trichlorophenyl)sulfonyl]-3,8-diazabicyclo[3.2.1]oct-3-yl}methanone], 1.4 nM.
The same measure for `COc1ccc(Cl)cc1S(=O)(=O)N1C2CCC1CN(C(=O)c1cnn[nH]1)C2` [Example 57, {8-[(5-chloro-2-methoxyphenyl)sulfonyl]-3,8-diazabicyclo[3.2.1]oct-3-yl}(1H-1,2,3-triazol-5-yl)methanone]: 9.7 nM.
